Test results taken from article PMC3475717, “A Spiroligomer α-Helix Mimic That Binds HDM2, Penetrates Human Cells and Stabilizes HDM2 in Cell Culture” (PLoS ONE, 2012).
Entries after “also recorded” stand apart in the source; their conditions may differ.

What was measured:
[1] = tested on: HDM2, p53Y220C and p21 in Huh7 cells; assay: Western blot analysis of HDM2, p53 and p21; assay type: cell-based, human
Method: Huh7 cells were incubated with spiroligomer 1 and Nutlin-3 in media at 2, 5, 10 and 20 µM for 17 hours at 37°C. […] Huh7 cells were then incubated with 1 at 15 µM and cells were harvested at 2, 4, 6, 8, 12 and 24 hours. […]
Cell Culture and Treatment. HepG2 (expressing wild-type p53) and Huh7 (expressing mutant p53) cell lines were purchased from the American Type Culture Collection (ATCC) and cultured as monolayers in Dulbecco’s modified Eagle’s medium (DMEM) (Invitrogen) supplemented with 100 mM nonessential amino acid solution, 100 mM sodium pyruvate, 100 U/mL penicillin, 100 μg/mL streptomycin, and 10% heat inactivated fetal bovine serum (FBS) (all from Hyclone).
Cells were maintained at 37° C and 5% CO2 and were treated with media that contained 0.5%
FBS. Nutlin-3 (Sigma) was dissolved in 0.01% DMSO (Sigma).
Both nutlin-3 and spiroligomers were added into the medium for final concentrations of 2 µM, 5 µM, 10 µM and 20 µM for 24 hours. For the western blot experiments detailed below, the time length for incubation with bis-peptide was 17 hours. […]
Western Blotting. For protein extraction, cells were lysed in cell lysis buffer (Cell Signaling) with a protease inhibitor cocktail for 20 minutes on ice. Protein extracts (50 μg) were separated by SDS-PAGE electrophoresis, transferred to nitrocellulose membranes (Schleicher & Schuell), and incubated overnight with primary antibodies to p53, HDM2, p21, and β-actin (all from Santa Cruz Biotechnology). The blots were developed using ECL plus detection system (Amersham Biosciences) and exposed to Kodak imaging films (Kodak BioMax). Images were quantified using ImageJ software (NIH).
Figure S.5. Detection of bis-peptide 1 and Nutlin-3 in HepG2 (left) and Huh7 (right) cells. The concentration of each compound is given in μM and the three proteins (HDM2, p53 and p21) bands are […]

[2] = tested on: mRNA for HDM2 in Huh7 cells; assay: quantitative real-time PCR and end-point PCR of HDM2; assay type: cell-based, human; details: β-actin as loading control
Method: Huh7 cells were incubated with spiroligomer 1 and Nutlin-3 in media at 2, 5, 10 and 20 µM for 17 hours at 37°C. […] Huh7 cells were then incubated with 1 at 15 µM and cells were harvested at 2, 4, 6, 8, 12 and 24 hours. […] Our hypothesis is that compound 1 stabilizes HDM2 to proteolysis. Studies are underway to determine the mechanism of HDM2 stabilization by compound 1.
RNA Extraction, Reverse Transcription and PCR Analysis. Total RNA was extracted using High Pure RNA Isolation Kit (Roche Applied Science) according to enclosed instructions. cDNA was prepared using RETROscript Reverse Transcription Kit (Ambion). HDM2 primers (Ensembl […]
(forward) and 5'-[…]-3' (reverse). These primers recognize cDNAs of all HDM2 isoforms with p53 binding sequence7 and generate 102 bp amplicon. β-actin primers for 243 bp PCR transcript (Ensemble gene: Actb, ENSRNOG00000034254) were 5’- […]
[…]-3’ (forward) and 5’-[…]-3’ (reverse).
Primers were designed using Primer3Plus Web Interface. cDNA was amplified using FastStart SYBR Green Master Kit (Roche Applied Science). Real-time quantitative PCR was performed using Stratagene Mx 3005P QPCR system. PCR samples were amplified in 40 cycles; each cycle consisted of 60 sec of denaturation at 95 °C, 60 sec of annealing at 60 °C, and 60 sec of elongation at 72 °C. […]
Figure S.7. Real-time quantitative PCR (A.) and end-point PCR (B.) analysis of HDM2 in Huh7 cells […]

[3] = Huh7, 2, 5, 10 and 20 µM, 17 hours, 37°C

SMILES: CC(C)CN1C(=O)[C@@H]2C[C@@]3(CN2C(=O)[C@@]12C[C@H]1C(=O)N(Cc4ccc(Cl)c(Cl)c4)[C@]4(C[C@@H]5C(=O)N[C@@H](CCc6ccccc6)C(=O)N5C4)C(=O)N1C2)NC(=O)[C@@H](CCCCNC(=S)Nc1ccc2c(c1)C(=O)OC21c2ccc(O)cc2Oc2cc(O)ccc21)NC3=O [Compound 1]
- p53Y220C levels with time ([1]; Huh7, 15 µM, harvested at 2, 4, 6, 8, 12 and 24 hours): no change in p53Y220C levels with time; also recorded: no effect on p53Y220C levels
- p21 levels [1, 3]: did not change
- p53Y220C levels [1, 3]: did not change
- HDM2 levels relative to control cells ([1]; Huh7, 2, 5, 10 and 20 µM, 17 hours, 37°C, dose-dependent): more than 30 fold
- level of mRNA for HDM2 [2]: no effect; also recorded: no difference in HDM2 expression levels
